In patent publication US10036036B1, “Compositions and methods for deploying a transgenic refuge as a seed blend” (priority 2007, dated 2018):

Tested on: western and northern corn rootworm
Assay: Field trial (Example 3): corn rootworm damage by Iowa class, percent of control and synergy threshold
Type: in vivo
Method: A field trial was established and completed in accordance with pertinent protocols and in conformance with USDA notification requirements. The purpose of the trial was to determine the efficacy of transgenic event Cry3Bb.11231 in corn seed in combination with corn rootworm seed treatments using imidacloprid.
All seed treatments with pesticides were carried out as described in Example 1. In seed treatment number 1 and 2, Gaucho® was used for wire worm protection, but at levels sufficiently low that it would be expected to have no effect on corn rootworms (i.e., at a treatment level of about 60 gm of active/100 kg seed or 0.16 mg active/kernel), otherwise, seed receiving treatment number 2 had only transgenic event Cry3Bb.11231 and no pesticide treatment that would be expected to be effective against corn rootworm.
For seeds having treatments numbered 3 through 5, the pesticides were applied by the methods described in Example 1. For seeds having treatment numbers 6 and 7, commercially available Force® 3 G and Lorsban® 15 G were applied to the soil in a 5″ band at the time of sowing. The levels of application are as shown and are within the ranges recommended for standard commercial practice.
Corn seeds to be tested were planted and grown at four different locations across several Midwestern states in the United States corn belt according to the protocol described above.
The determination of damage by corn root worm was made according to the protocol described in Example 2.
The combination of imidacloprid seed treatment with corn seed having a Cry3Bb.11231 transgenic event was tested for possible synergy at a level of rootworm damage of 3-6. In the first test, shown in Table 2, the percentage of test plants having damage levels of from 3 to 6, on the Iowa 1-6 Scale, was determined for the control and for seeds treated with the pesticide at two levels, and for seeds having the transgenic event, alone and in combination. The following formula was then used to calculate a “synergy threshold”: (% of control Cry3Bb.11231)*(% of control imidacloprid treatment)/100.
This threshold was compared against the percent of control for the treatment combination (i.e., Cry3Bb.11231 with imidacloprid @ 400 gm/100 kg). If the treatment combination percent of control was below the threshold, then it was concluded that there was synergy.
It was believed that the measurement of rootworm damage at higher damage levels (i.e., levels 3-6) is a useful indicator that correlates with subsequent yield loss due to such damage. The reason for this is that rootworm damage at levels 1 and 2 seldom causes corn plants to fall over and lodge, and such minimal root loss is not believed to reduce the number or weight of kernels per ear. However, root damage at levels of 3 and above increasingly causes lodging and loss of yield. Therefore, it is believed that the summed damage levels of 3-6 (and in some cases, 4-6 and 5 and 6), provides a useful indication of the effect of corn rootworm damage on subsequent corn yield.

## O=[N+]([O-])NC1=NCCN1Cc1ccc(Cl)nc1 [Imidacloprid, 1-[(6-chloro-3-pyridinyl)methol]-N-nitro-2-imidazolidinimime]
Table 2, plants with damage levels 3-6 relative to isohybrid control
  PERCENT OF CONTROL: 80.5%
Table 3, damage levels 3-6 on Iowa 1-6 scale
  NUMBER OF PLANTS HAVING 3-6 DAMAGE LEVEL: 71.7
Table 3, damage levels 3-6 relative to untreated control
  PERCENT OF CONTROL: 80.5%
Count of plants in Iowa class 1
  CORN ROOTWORM DAMAGE IN EACH IOWA CLASS (IOWA 1-6 SCALE): 1: 3
Count of plants in Iowa class 2
  CORN ROOTWORM DAMAGE IN EACH IOWA CLASS (IOWA 1-6 SCALE): 2: 15
Count of plants in Iowa class 3
  CORN ROOTWORM DAMAGE IN EACH IOWA CLASS (IOWA 1-6 SCALE): 3: 36
Count of plants in Iowa class 4
  CORN ROOTWORM DAMAGE IN EACH IOWA CLASS (IOWA 1-6 SCALE): 4: 21
Count of plants in Iowa class 5
  CORN ROOTWORM DAMAGE IN EACH IOWA CLASS (IOWA 1-6 SCALE): 5: 5
Count of plants in Iowa class 6
  CORN ROOTWORM DAMAGE IN EACH IOWA CLASS (IOWA 1-6 SCALE): 6: 0
